Results: US11548939B2, “Therapeutic combinations using IGF1R pathway inhibitors, and methods to predict anti-IGF1R therapeutic efficacy” (UNIVERSITY OF PITTSBURGH-OF THE COMMONWEALTH SYSTEM OF …, priority 2018, dated 2023)

Assays:
[1] = system: MDA-MB-134 (MM134) ILC cells; assay: Synergy measurement (Chou-Talalay combination index), CellTiter Glo viability, 96-well ULA plates, 6 days; conditions: for CI: ED75 / CI: ED90: MM134, drug in combination with ICI 182,780, mean ± SEM, 3 independent experiments
Method: MDA-MB-134 ILC cells were plated into 96-well ULA plates and treated for 6 days with increasing doses of OSI-906 (FIG. 11A, 11B), BMS-754807 (FIGS. 11C, 11D), or BEZ235 (FIGS. 11E, 11F) in combination with increasing doses of ICI 182,780. The dose response curves (FIGS. 11A, 11C, 11E) and heat maps (FIGS. 11B, 11D, 11F) shown indicate inhibition of cell viability (CellTiter Glo). Representative experiment shown; n=3 each with 2 biological replicates per combination of doses.
Plates (2D and ultra-low attachment [ULA; Corning #3474]) were collected on day 6 and viability was measured using CellTiter Glo Viability assay (Promega #G7572). […] For synergy experiments, SUM44PE and MDA-MB-134 cells were plated in 96-well ULA plates (18,000 cells/well) in 100 μl of media/well. […] Synergy was calculated using the Median-Effect Principle and Combination Index-Isobologram Theorem (Chou-Talalay)^27. Combination index values for ED50, ED75, ED90 are shown as a mean±SEM from n=3 independent experiments.
Synergy was measured using the Median-Effect Principle and Combination-Index Isoblogram Theorem. […] Values are shown +/−SEM from 3 independent experiments each with n=2 biological replicates.

SUM44PE ILC cells = assay: as above; conditions: for CI: ED75 / CI: ED90: SUM44PE, drug in combination with ICI 182,780, mean ± SEM, 3 independent experiments
Method: SUM44PE ILC cells were plated into 96-well ULA plates and treated for 6 days with increasing doses of OSI-906 (FIG. 10A, 10B), BMS-754807 (FIG. 10C, 10D), or BEZ235 (FIG. 10E, 10F) in combination with increasing doses of ICI 182,780. The dose response curves (FIG. 10A, 10C, 10E) and heat maps (FIG. 10B, 10D, 10F) shown indicate inhibition of cell viability (CellTiter Glo).
For synergy experiments, SUM44PE and MDA-MB-134 cells were plated in 96-well ULA plates (18,000 cells/well) in 100 μl of media/well. […] Synergy was calculated using the Median-Effect Principle and Combination Index-Isobologram Theorem (Chou-Talalay)^27. Combination index values for ED50, ED75, ED90 are shown as a mean±SEM from n=3 independent experiments.
Synergy was measured using the Median-Effect Principle and Combination-Index Isoblogram Theorem. […] Values are shown +/−SEM from 3 independent experiments each with n=2 biological replicates. CI values <1 indicate a synergistic drug interaction.

ZR75.1 cells = assay: Dose response growth assay (CellTiter Glo) in cells transfected with SCR or CDH1 siRNA; format: cell-based; conditions: 6 days
Text: FIGS. 5A and 5B show knockdown of E-cadherin increases sensitivity to IGF1R inhibition in breast cancer cells. ZR75.1 cells were reverse transfected with SCR or CDH1 siRNA and seeded into 96-well 2D (FIG. 5A) or ULA (FIG. 5B) plates and treated with OSI-906 for 6 days. CellTiter Glo assay was used to assess cell viability (relative luminescence).

MCF-7 cells = assay: as above; format: cell-based; conditions: 6 days
Text: The CellTiter Glo assay was used to assess cell viability (relative luminescence).
CellTiter Glo assay was used to assess cell viability (relative luminescence).

MM134 xenograft tumor = assay: ILC xenograft tumor ex vivo explant culture, Ki67 staining; format: cell-based, human; conditions: 1 μM, 72 hours, vehicle 47%, p=0.002
Method: (§1) FIGS. 12A, 12B, 12C, 12D, 12E and 12F show IGF1R inhibition reduces Ki67 staining in ILC tumor ex vivo culture. MM134 (FIGS. 12A, 12B, and 12C) and BCK4 (FIGS. 12D, 12E, and 12F) xenograft tumors were harvested from immunocompromised mice, minced into 1-2 mm^3 tumor chunks and then plated on gelatin sponges in 12-well plate containing 1.5 mL media. Media was treated with DMSO Vhc (FIGS. 12A and 12D) or 1 μM […] (FIGS. 12B and 12E) for 72 hours. Tumor pieces were harvested by FFPE and stained for Ki67 as a marker of proliferation. Staining was quantified for MM134 (FIG. 12C) and BCK4 (FIG. 12F) cells by counting all clearly defined nuclei in 20× images. Statistical difference was assessed using a Student's t-test (p<0.05; n=3-6). […] Nuclei were quantified by counting all clearly defined nuclei within each tissue section (n=3-6). […]

BCK4 xenograft tumor = assay: as above; format: cell-based; conditions: 1 μM, 72 hours, vehicle 25%, p=0.005
Method: as §1

difference in EC50 between siSCR and siCDH1 cells (MCF-7 cells; 2D and ULA (FIG. 6))	Structure (SMILES)	CI: ED75 [1]	CI: ED90 [1]	CI: ED75 (SUM44PE ILC cells)	CI: ED90 (SUM44PE ILC cells)	viability of siCDH1 cells compared to siSCR cells in response to treatment (ZR75.1 cells; 2D growth condition)	viability of siCDH1 cells compared to siSCR cells in response to treatment (ZR75.1 cells; ULA growth condition)	viability of siCDH1 cells compared to siSCR cells in response to treatment (MCF-7 cells; 2D growth condition)	viability of siCDH1 cells compared to siSCR cells in response to treatment (MCF-7 cells; ULA growth condition)	minimum dose reduction index (DRI) for ICI ([1]; MM134 cells, all drug combinations (OSI, BMS, BEZ), at the EC50) [fold]	minimum dose reduction index (DRI) for ICI (SUM44PE ILC cells; SUM44PE cells, all drug combinations (OSI, BMS, BEZ), at the EC50) [fold]	Ki67 positive nuclei (MM134 xenograft tumor) [%]	CI: ED75 (SUM44PE ILC cells; listed as BMS)	CI: ED90 (SUM44PE ILC cells; listed as BMS)	Ki67 positive nuclei (BCK4 xenograft tumor) [%]
	Cn1c(=O)n(-c2ccc(C(C)(C)C#N)cc2)c2c3cc(-c4cnc5ccccc5c4)ccc3ncc21 [BEZ235, 4-[2,3-dihydro-3-methyl-2-oxo-8-(3-quinolinyl)-1H-imidazo[4,5-c]quinolin-1-yl]-α,α-dimethyl-benzeneacetonitrile]	0.547 ± 0.13	2.885 ± 1.34	0.401 ± 0.12	0.425 ± 0.12										
	C[C@]1(O)C[C@@H](c2nc(-c3ccc4ccc(-c5ccccc5)nc4c3)c3c(N)nccn32)C1 [OSI-906, cis-3-[8-amino-1-(2-phenyl-7-quinolinyl)imidazo[1,5-a]pyrazin-3-yl]-1-methyl-cyclobutanol]	0.449 ± 0.18	0.808 ± 0.48	0.250 ± 0.10	0.398 ± 0.22	not in the 2D growth condition	significantly decreased viability	significantly decreased viability	significantly decreased viability						
no statistical difference in EC50	C[C@]12CC[C@@H]3c4ccc(O)cc4C[C@@H](CCCCCCCCC[S+]([O-])CCCC(F)(F)C(F)(F)F)[C@H]3[C@@H]1CC[C@@H]2O (stereo partly drawn) [ICI 182,780, 7α,17β-[9-[(4,4,5,5,5-Pentafluoropentyl)sulfinyl]nonyl]estra-1,3,5(10)-triene-3,17-diol]									≥ 2	≥ 8				
	C[C@@]1(C(=O)Nc2ccc(F)nc2)CCCN1c1nc(Nc2cc(C3CC3)[nH]n2)c2cccn2n1 [BMS-754807, (2S)-1-[4-[(5-Cyclopropyl-1H-pyrazol-3-yl)amino]pyrrolo[2,1-f][1,2,4]triazin-2-yl]-N-(6-fluoro-3-pyridinyl)-2-methyl-2-Pyrrolidinecarboxamide]	0.230 ± 0.04	0.667 ± 0.15	0.081 ± 0.04	0.099 ± 0.04			no significant difference	decreased viability			22	0.081	0.099	11
